Data as given in US6197761A, “17β-2-oxo-tetrahydrofuranyl)-carbothioic acid ester, -carboxylic acid ester and -carboxylic acid amide androstane derivatives” (Glaxo Wellcome Inc., priority 1995, dated 2001).

How the values were obtained:
[1] = tested on: Adrenocorticotrophic hormone (ACTH); assay: Systemic effects: ACTH suppression in adrenalectomised rats; format: in vivo, rat; conditions: single intra-tracheal, adrenalectomised male CD rats, plasma ACTH at 4 h
Method: (ii) Systemic effects--ACTH suppression in adrenalectomised rats
Male CD rats (90-120 g) were adrenalectomised under Isoflurane anaesthesia and drinking water was supplemented with 0.9% saline. Four days later the animals receive a single intra-tracheal dose (under Isoflurane anaesthesia) of compound suspended in saline (containing 0.2% Tween-80, 0.2 ml) at 10 am. After 4 h animals are sacrificed by administration of Euthetal and blood samples are taken by intra-cardiac puncture and collected into heparinised tubes. The samples are centrifuged (20 minutes at 1000 RPM at 4 deg C.), the plasma is collected and assayed by Radioimmunoassay (RIA) for Adrenocorticotrophic hormone (ACTH) using a DPC double antibody RIA kit. Intact and vehicle control groups were included in each experiment in order to account for diurnal variation in ACTH and effects of vehicle. Results are calculated with respect to the RIA standard curve and expressed as ACTH pg/ml plasma, allowing percentage reduction in ACTH to be calculated.

rat ear oedema = assay: Anti-inflammatory activity: inhibition of rat ear oedema (croton oil); format: in vivo; conditions: dose 100 μg, topical to ear with 5% croton oil in acetone, male rats, 6 hours
Method: (i) Anti-inflammatory Activity--Inhibition of rat ear oedema
The test compounds are dissolved in acetone and 40 ul containing 5% croton oil is applied to the inner surface of each of the ears of 60-80 g male rats. Animals are killed 6 hours later and the ears are removed. Standard size (0.5 cm diameter) discs are punched out and the discs weighed. Mean weight of the ear discs is calculated and from this percentage inhibition of ear inflammation in relation to croton oil alone treated ears are calculated.

Row | Structure (SMILES) | % Reduction in ACTH ([1]; dose 1 μg) | % Reduction in ACTH ([1]; dose 5 μg) | % Inhibition (ear inflammation) (rat ear oedema) | % Reduction in ACTH ([1]; dose 500 μg)
1 | CC1(C)O[C@@H]2C[C@H]3[C@@H]4C[C@H](F)C5=CC(=O)C=C[C@]5(C)[C@@]4(F)[C@@H](O)C[C@]3(C)[C@]2(C(=O)CO)O1 [Fluocinolone acetonide] | 49% | 84% | – | –
2 | CCC(=O)O[C@]1(C(=O)S[C@H]2CCOC2=O)[C@H](C)C[C@H]2[C@@H]3C[C@H](F)C4=CC(=O)C=C[C@]4(C)[C@@]3(F)[C@@H](O)C[C@@]21C [Example 2, 6α,9α-Difluoro-11β-hydroxy-16α-methyl-3-oxo-17α-propionyloxy-androsta-1,4-diene-17β-carbothioic acid S-(2-oxo-tetrahydro-furan-3S-yl)-ester] | – | – | 42% | 0%
3 | CCC[C@@H]1O[C@@H]2C[C@H]3[C@@H]4C[C@H](F)C5=CC(=O)CC[C@]5(C)[C@@]4(F)[C@@H](O)C[C@]3(C)[C@]2(C(=O)SC2CCOC2=O)O1 (single isomer, unassigned) [Example 19 Isomer B, 16α,17α-(R-Butylidenedioxy)-6α,9α-difluoro-11β-hydroxy-3-oxo-androst-4-ene-17β-carbothioic acid S-(2-oxo-tetrahydro-furan-3-yl) ester] | – | – | 43% | –
